In brackets after ≈: the same amount, converted by molar mass. Read-outs that look alike come from different tables or passages of the source. Where only a bound is given, the exact number is not on record here.

Here are results for 13 molecules from paper PMC9421654, “Discovery of Substituted Di(pyridin-2-yl)-1,2,4-thiadiazol-5-amines as Novel Macrofilaricidal Compounds for the Treatment of Human Filarial Infections” (Journal of Medicinal Chemistry, 2022).

Data set [1] can be described thus: Kinetic solubility measurement. Format: physicochemical. As to conditions: 10 mM DMSO stock solutions. In outline:
(§1)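 Human and rat liver microsomes (0.3 mg/mL) with 1 mM NADPH and 3µM substrate, 30 minutes at 37 °C in pH 7.4 phosphate/MgCl2, triplicate; LC-MS/MS percentage remaining. LogD: octanol/aqueous buffer (pH 7.4, 2.2, 6.8, 5), 24 h shaking at room temperature. Kinetic solubility: 200 µM, 2% DMSO, 24 h, filtered.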

Data set [2] can be described thus: LogD measurement (octanol-water). Format: physicochemical. Put shortly: as §1
Data set [3] deals with O. gutturosa adult male worms. In words: O. gutturosa adult worm ex vivo assay, MTT/formazan viability. As to conditions: supplement, SD in brackets in the PDF table, read-out: O. gutturosa EC50 (uM) MTT viability inhibition. Format: cell-based, Onchocerca gutturosa. Put shortly:
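Adult male worms from naturally infected Gambian cattle were kept individually in MEM with 10% newborn calf serum at 37 °C, 5% CO2; four worms per concentration. Motility was scored 0-10 every 24 h to 120 h as a percentage of maximum, with ≥50% reduction versus untreated counted active. Afterwards, MTT (0.5 mg/mL, 30 min) formazan was read at 490 nm.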

The subject of data set [4] is O. gutturosa adult male worms. In words: O. gutturosa adult worm ex vivo assay, motility. Conditions: Onchocerca gutturosa. It counts as cell-based, Onchocerca gutturosa. In outline:
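Adult male O. gutturosa from naturally infected cattle were cultured in supplemented MEM at 37 °C, 5% CO2, with four worms per concentration in serial 1-in-4 dilutions. Motility (0–10 scale) was scored every 24 h to 120 h. EC50 (geomean, n=2) for motility reduction came from 4PL fits, and viability was checked by MTT at 120 h.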

[5] abbreviates: supplement, read-out: measured logD.
The mark [6] stands for this setting: read-out: O. gutturosa EC50 μM (SD), ex vivo adult worm motility reduction, SD in brackets.
[7] abbreviates: read-out: O. gutturosa EC50 (uM) motility inhibition, supplement, SD in brackets in the PDF table.
[8] abbreviates: read-out: O. gutturosa EC50, adult worm motility, bound stated.

The solubility (kinetic) is the concentration staying in solution when a stock, usually in DMSO, is diluted into the medium. As a reminder, the logD is the decadic logarithm of the distribution of all forms, ionised or not, between an organic phase and buffer at a given pH. A word on the EC50: it is the concentration giving half of the maximal effect. Turning to `CNc1cccnc1Nc1nc(-c2ccc(OC(C)C)cn2)ns1` [Compound 30], the kinetic solubility at 24 h in data set [1] was determined as 1.9 µM (≈ 0.651 µg/mL). For the same molecule, the logD at 24 h is 2.9 in data set [2] (pH 7.4, read-out: logD) and 2.9 in data set [2] (setting [5]). Further, the EC50 stood at 0.59 µM in data set [3] (Onchocerca gutturosa), 0.22 µM in data set [4] (setting [6]) and 0.219 µM in data set [4] (setting [7]).
Turning to `CC(C)Oc1ccc(-c2nsc(Nc3ncccc3N(C)C)n2)nc1` [Compound 31, N^2-(3-(5-Isopropoxypyridin-2-yl)-1,2,4-thiadiazol-5-yl)-N3,N3-dimethylpyridine-2,3-diamine], the kinetic solubility at 24 h in data set [1] was found to be 22.5 µM (≈ 8.02 µg/mL). The logD at 24 h came to 3.23 in data set [2] (pH 7.4, read-out: logD) and 3.23 in data set [2] (setting [5]). The EC50 worked out at 0.24 µM in data set [3] (Onchocerca gutturosa), 0.08 µM in data set [4] (setting [6]) and 0.083 µM in data set [4] (setting [7]).
As to `CC(C)Oc1ccc(-c2nsc(Nc3ncccc3N(C)C(=O)C3CC3)n2)nc1` [Compound 50, N-(2-((3-(5-Isopropoxypyridin-2-yl)-1,2,4-thiadiazol-5-yl)amino)pyridin-3-yl)-N-methylcyclopropanecarboxamide], the solubility (kinetic) at 24 h in data set [1] was 2.71 µM (≈ 1.11 µg/mL). Moreover, the logD at 24 h in data set [2] (pH 7.4, read-out: logD) came out at 2.4; in data set [2] (setting [5]), 2.4. Moreover, the results for the EC50 in data set [3] (Onchocerca gutturosa), in data set [4] (setting [6]) and in data set [4] (setting [7]) were 2.3 µM, 0.56 µM and 0.55 µM, respectively.
For the molecule `Cc1cccnc1Nc1nc(-c2ccc(OC3CCN(C4CC4)CC3)cn2)ns1` [Compound 19, 3-[5-[(1-Cyclopropyl-4-piperidyl)oxy]-2-pyridyl]-N-(3-methyl-2-pyridyl)-1,2,4-thiadiazol-5-amine], the solubility (kinetic) at 24 h in data set [1] was 3.05 µM (≈ 1.25 µg/mL). Further, the logD at 24 h stood at 3.3 in data set [2] (pH 7.4, read-out: logD) and 3.3 in data set [2] (setting [5]). Also, the EC50 in data set [3] (Onchocerca gutturosa) is 0.19 µM; in data set [4] (setting [6]) it was 0.06 µM; in data set [4] (setting [7]), 0.064 µM.
`CC(C)c1ccnc(-c2nsc(Nc3cc(C(F)(F)F)ccn3)n2)c1` [Compound 35, 3-(4-Isopropylpyridin-2-yl)-N-(4-(trifluoromethyl)pyridin-2-yl)-1,2,4-thiadiazol-5-amine]: the solubility (kinetic) at 24 h in data set [1] is < 1 µM. Also, the logD at 24 h in data set [2] (pH 7.4, read-out: logD) amounted to 3; in data set [2] (setting [5]), 3. In addition, the figures for the EC50 in data set [3] (Onchocerca gutturosa) and in data set [4] (setting [6]) were 0.15 µM and 0.05 µM, respectively.
As for `Cc1ccnc(-c2nsc(Nc3ncccc3C(F)(F)F)n2)c1` [Compound 26, 3-(4-Methylpyridin-2-yl)-N-(3-(trifluoromethyl)pyridin-2-yl)-1,2,4-thiadiazol-5-amine], the kinetic solubility at 24 h in data set [1] came out at 0.9 µM (≈ 0.304 µg/mL). In addition, the logD at 24 h in data set [2] (pH 7.4, read-out: logD) stood at 2.45; in data set [2] (setting [5]), 2.45. The EC50 is 0.07 µM in data set [3] (Onchocerca gutturosa), 0.069 µM in data set [3], 0.03 µM in data set [4] (setting [6]) and 0.029 µM in data set [4] (setting [7]).
Take `Cc1cccnc1Nc1nc(-c2ccc(OC3CC3)cn2)ns1` [Compound 11, 3-(5-Cyclopropoxypyridin-2-yl)-N-(3-methylpyridin-2-yl)-1,2,4-thiadiazol-5-amine]: the solubility (kinetic) at 24 h in data set [1] is 1.84 µM (≈ 0.599 µg/mL). Moreover, the logD at 24 h in data set [2] (pH 7.4, read-out: logD) came out at 3.4; in data set [2] (setting [5]) it was 3.4. Also, the EC50 in data set [3] (Onchocerca gutturosa) is 0.02 µM; in data set [4] (setting [6]) it was 0.11 µM; in data set [4] (setting [7]) it was 0.106 µM.
For `CC(C)c1ccnc(-c2nsc(Nc3ncccc3C(F)(F)F)n2)c1` [Compound 27], in data set [1], the solubility (kinetic) at 24 h was found to be 1.6 µM (≈ 0.585 µg/mL). Further, the logD at 24 h is 2.5 in data set [2] (pH 7.4, read-out: logD) and 2.5 in data set [2] (setting [5]). Moreover, the EC50 in data set [3] (Onchocerca gutturosa) was 0.07 µM; in data set [3], 0.069 µM; in data set [4] (setting [6]), 0.01 µM; in data set [4] (setting [8]), < 0.1 µM.
Turning to `CN(C)c1cccnc1Nc1nc(-c2ccc(OC3CC3)cn2)ns1` [Compound 32], the solubility (kinetic) at 24 h in data set [1] was 8.92 µM (≈ 3.16 µg/mL). Further, the logD at 24 h was found to be 2.5 in data set [2] (pH 7.4, read-out: logD) and 2.5 in data set [2] (setting [5]). The EC50 in data set [3] (Onchocerca gutturosa) was found to be 0.56 µM; in data set [4] (setting [6]), 0.74 µM; in data set [4] (setting [7]) it was 0.743 µM.
In the case of `CC(=O)N(C)c1cccnc1Nc1nc(-c2ccc(OC(C)C)cn2)ns1` [Compound 47, N-(2-((3-(5-Isopropoxypyridin-2-yl)-1,2,4-thiadiazol-5-yl)amino)pyridin-3-yl)-N-methylacetamide], the solubility (kinetic) at 24 h in data set [1] stood at 109 µM (≈ 41.9 µg/mL). The logD at 24 h in data set [2] (pH 7.4, read-out: logD) came to 1.62; in data set [2] (setting [5]), 1.62. Besides, the EC50 came to 1.9 µM in data set [3] (Onchocerca gutturosa) and 1.07 µM in data set [4] (setting [6]).
Consider `CC(C)Oc1ccc(-c2nsc(Nc3ncccc3C(C)C)n2)nc1` [Compound 25, 3-(5-Isopropoxy-2-pyridyl)-N-(3-isopropyl-2-pyridyl)-1,2,4-thiadiazol-5-amine], for which the kinetic solubility at 24 h in data set [1] stood at 2.58 µM (≈ 0.917 µg/mL). Moreover, the logD at 24 h in data set [2] (pH 7.4, read-out: logD) worked out at 2.85; in data set [2] (setting [5]), 2.85. In addition, the EC50 in data set [3] (Onchocerca gutturosa) stood at 0.54 µM; in data set [4] (setting [6]), 0.1 µM; in data set [4] (setting [7]), 0.099 µM.
In turn, `Cc1cccnc1Nc1nc(-c2ccc(OC3CC4(C3)CN(C3CC3)C4)cn2)ns1` [Compound 12, 3-[5-[(2-Cyclopropyl-2-azaspiro[3.3]heptan-6-yl)oxy]-2-pyridyl]-N-(3-methyl-2-pyridyl)-1,2,4-thiadiazol-5-mine] gave a kinetic solubility at 24 h in data set [1] of 13.1 µM (≈ 5.5 µg/mL). The logD at 24 h came out at 2.1 in data set [2] (pH 7.4, read-out: logD) and 2.1 in data set [2] (setting [5]). Also, the EC50 was 0.03 µM in data set [3] (Onchocerca gutturosa), 0.033 µM in data set [3], 0.39 µM in data set [4] (setting [6]) and 0.393 µM in data set [4] (setting [7]).
`Cc1cccnc1Nc1nc(-c2ccc(OC(C)C)cn2)ns1` [Compound 10, 3-(5-Isopropoxypyridin-2-yl)-N-(3-methylpyridin-2-yl)-1,2,4-thiadiazol-5-amine] registered a solubility (kinetic) at 24 h in data set [1] of 3.2 µM (≈ 1.05 µg/mL). The logD at 24 h amounted to 2.88 in data set [2] (pH 7.4, read-out: logD) and 2.88 in data set [2] (setting [5]). In addition, the half-maximal effective concentration (EC50) was 0.01 µM in data set [3] (Onchocerca gutturosa); 0.013 µM in data set [3]; 0.06 µM in data set [4] (setting [6]); 0.055 µM in data set [4] (setting [7]); < 0.1 µM in data set [4] (setting [8]).
